Patent US8664220B2, “Polycyclic compounds as lysophosphatidic acid receptor antagonists” (Amira Pharmaceuticals, Inc., priority 2009, dated 2014)

Biological target: T1, human LPA1 (Homo sapiens, UniProt Q92633)
T1 construct: the full-length cDNA for human LPA1 was obtained by PCR of the reverse transcription reaction; expressed in transfected cells
Test: LPA1 calcium flux assay
Type: cell-based
Conditions: human LPA1 expressing CHO cells, stimulated with 10 nM LPA; read-out: HLPA1 Ca Flux IC50
How it was run: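 CHO cells stably expressing human LPA1, serum-starved overnight and loaded with Calcium 4 dye in HBSS/20 mM Hepes/0.3% fatty-acid-free HSA, 1 h at 37 °C. Compounds pre-incubated 30 min at room temperature, then 10 nM LPA added; intracellular Ca2+ flux measured and IC50 from titration curves.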

T1 sequence (Q92633 whole entry): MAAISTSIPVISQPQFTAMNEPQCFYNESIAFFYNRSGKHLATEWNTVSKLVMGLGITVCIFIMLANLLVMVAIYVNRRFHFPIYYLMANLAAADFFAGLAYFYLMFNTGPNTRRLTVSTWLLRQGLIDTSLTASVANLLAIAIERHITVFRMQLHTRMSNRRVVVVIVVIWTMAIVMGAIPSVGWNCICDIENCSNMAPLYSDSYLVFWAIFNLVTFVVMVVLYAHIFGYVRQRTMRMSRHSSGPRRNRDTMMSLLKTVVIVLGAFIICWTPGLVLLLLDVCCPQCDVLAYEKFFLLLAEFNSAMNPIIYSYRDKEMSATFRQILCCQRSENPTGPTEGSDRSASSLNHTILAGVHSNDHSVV

Row | IC50 [nM] | Compound
1 | < 300 | Cc1noc(-c2ccc(-c3ccc(C4(C(=O)O)CC4)cc3)cc2)c1Nc1cccc(-c2ccccc2F)n1 [Compound 1-95, 1-(4′-{4-[6-(2-Fluoro-phenyl)-pyridin-2-ylamino]-3-methyl-isoxazol-5-yl}-biphenyl-4-yl)-cyclopropanecarboxylic acid]
2 | < 300 | Cc1noc(-c2ccc(-c3ccc(C4(C(=O)O)CC4)cc3)cc2)c1Nc1cccc(-c2ccccc2C(F)(F)F)n1 [Compound 1-96, 1-(4′-{3-methyl-4-[6-(2-trifluoromethyl-phenyl)-pyridin-2-ylamino]-isoxazol-5-yl}-biphenyl-4-yl)-cyclopropanecarboxylic acid]
3 | < 300 | COc1ncccc1-c1cccc(Nc2c(C)noc2-c2ccc(-c3ccc(C4(C(=O)O)CC4)cc3)cc2)n1 [Compound 1-97, 1-{4′-[4-(2′-Methoxy-[2,3′]bipyridinyl-6-ylamino)-3-methyl-isoxazol-5-yl]-biphenyl-4-yl}-cyclopropanecarboxylic acid]
4 | < 300 | COc1ccc(-c2cccc(Nc3c(C)noc3-c3ccc(-c4ccc(C5(C(=O)O)CC5)cc4)cc3)n2)cn1 [Compound 1-98, 1-{4′-[4-(6′-Methoxy-[2,3′]bipyridinyl-6-ylamino)-3-methyl-isoxazol-5-yl]-biphenyl-4-yl}-cyclopropanecarboxylic acid]
5 | < 300 | Cc1noc(-c2ccc(-c3ccc(C4(C(=O)O)CC4)cc3)cc2)c1Nc1cccc(-c2ccncc2)n1 [Compound 1-99, 1-{4′-[4-([2,4′]Bipyridinyl-6-ylamino)-3-methyl-isoxazol-5-yl]-biphenyl-4-yl}-cyclopropanecarboxylic acid]
6 | < 300 | Cc1noc(-c2ccc(-c3ccc(C4(C(=O)O)CC4)cc3)cc2)c1NCc1cnc(-c2ccccc2)s1 [Compound 1-100, 1-(4′-{3-Methyl-4-[(2-phenyl-thiazol-5-ylmethyl)-amino]-isoxazol-5-yl}-biphenyl-4-yl)-cyclopropanecarboxylic acid]
7 | < 300 | Cc1noc(-c2ccc(-c3ccc(C4(C(=O)O)CC4)cc3)cc2)c1Nc1cccc(-c2ccccc2C(F)(F)F)c1 [Compound 1-101, 1-{4′-[3-Methyl-4-(2′-trifluoromethyl-biphenyl-3-ylamino)-isoxazol-5-yl]-biphenyl-4-yl}-cyclopropanecarboxylic acid]
8 | < 300 | COc1ccc(-c2cccc(Nc3c(C)noc3-c3ccc(-c4ccc(C5(C(=O)O)CC5)cc4)cc3)c2)cn1 [Compound 1-102, 1-(4′-{4-[3-(6-Methoxy-pyridin-3-yl)-phenylamino]-3-methyl-isoxazol-5-yl}-biphenyl-4-yl)-cyclopropanecarboxylic acid]
9 | < 300 | Cc1noc(-c2ccc(-c3ccc(C4(C(=O)O)CC4)cc3)cc2)c1Nc1cccc(-c2cccnc2)c1 [Compound 1-103, 1-{4′-[3-Methyl-4-(3-pyridin-3-yl-phenylamino)-isoxazol-5-yl]-biphenyl-4-yl}-cyclopropanecarboxylic acid]
10 | < 300 | COc1cncc(-c2cccc(Nc3c(C)noc3-c3ccc(-c4ccc(C5(C(=O)O)CC5)cc4)cc3)c2)c1 [Compound 1-104, 1-(4′-{4-[3-(5-Methoxy-pyridin-3-yl)-phenylamino]-3-methyl-isoxazol-5-yl}-biphenyl-4-yl)-cyclopropanecarboxylic acid]
11 | 300 to 1000 | Cc1noc(-c2ccc(-c3ccc(C4(C(=O)O)CC4)cc3)cc2)c1Nc1cccc(N(C)c2ccccc2)n1 [Compound 1-105, 1-(4′-{3-Methyl-4-[6-(methyl-phenyl-amino)-pyridin-2-ylamino]-isoxazol-5-yl}-biphenyl-4-yl)-cyclopropanecarboxylic acid]
12 | < 300 | Cc1noc(-c2ccc(-c3ccc(C4(C(=O)O)CC4)cc3)cc2)c1Nc1cccc(N(C)c2ccccc2)c1 [Compound 1-106, 1-(4′-{3-Methyl-4-[3-(methyl-phenyl-amino)-phenylamino]-isoxazol-5-yl}-biphenyl-4-yl)-cyclopropanecarboxylic acid]
13 | < 300 | Cc1noc(-c2ccc(-c3ccc(C4(C(=O)O)CC4)cc3)cc2)c1Nc1cncc(-c2ccccc2)c1 [Compound 1-107, 1-{4′-[3-Methyl-4-(5-phenyl-pyridin-3-ylamino)-isoxazol-5-yl]-biphenyl-4-yl}-cyclopropanecarboxylic acid]
14 | < 300 | Cc1noc(-c2ccc(-c3ccc(C4(C(=O)O)CC4)cc3)cc2)c1Nc1cncc(-c2cccc(F)c2)c1 [Compound 1-108, 1-(4′-{4-[5-(3-Fluoro-phenyl)-pyridin-3-ylamino]-3-methyl-isoxazol-5-yl}-biphenyl-4-yl)-cyclopropanecarboxylic acid]
15 | < 300 | Cc1noc(-c2ccc(-c3ccc(C4(C(=O)O)CC4)cc3)cc2)c1Nc1cccc(-c2ccccc2Cl)n1 [Compound 1-109, 1-(4′-{4-[6-(2-Chloro-phenyl)-pyridin-2-ylamino]-3-methyl-isoxazol-5-yl}-biphenyl-4-yl)-cyclopropanecarboxylic acid]
16 | < 300 | Cc1noc(-c2ccc(-c3ccc(C4(C(=O)O)CC4)cc3)cc2)c1C(O)c1cccc(-c2ccccc2)n1 (stereo not drawn) [Compound 1-110, 1-(4′-{4-[Hydroxy-(6-phenyl-pyridin-2-yl)-methyl]-3-methyl-isoxazol-5-yl}-biphenyl-4-yl)-cyclopropanecarboxylic acid]
17 | 300 to 1000 | Cc1noc(-c2ccc(-c3ccc(C4(C(=O)O)CC4)cc3)cc2)c1Nc1ccnc(-c2ccccc2)c1 [Compound 1-111, 1-{4′-[3-Methyl-4-(2-phenyl-pyridin-4-ylamino)-isoxazol-5-yl]-biphenyl-4-yl}-cyclopropanecarboxylic acid]
18 | 1000 to 50000 | Cc1noc(-c2ccc(-c3ccc(C4(C(=O)O)CC4)cc3)cc2)c1Nc1ccnc(-c2cccc(F)c2)c1 [Compound 1-112, 1-(4′-{4-[2-(3-Fluoro-phenyl)-pyridin-4-ylamino]-3-methyl-isoxazol-5-yl}-biphenyl-4-yl)-cyclopropanecarboxylic acid]
19 | < 300 | Cc1noc(-c2ccc(-c3ccc(C4(C(=O)O)CC4)cc3)cc2)c1Nc1cncc(-c2ccccc2Cl)c1 [Compound 1-113, 1-(4′-{4-[5-(2-Chloro-phenyl)-pyridin-3-ylamino]-3-methyl-isoxazol-5-yl}-biphenyl-4-yl)-cyclopropanecarboxylic acid]
20 | < 300 | Cc1noc(-c2ccc(-c3ccc(C4(C(=O)O)CC4)cc3)cc2)c1Nc1ccnc(-c2ccccc2Cl)c1 [Compound 1-114, 1-(4′-{4-[2-(2-Chloro-phenyl)-pyridin-4-ylamino]-3-methyl-isoxazol-5-yl}-biphenyl-4-yl)-cyclopropanecarboxylic acid]
21 | < 300 | Cc1noc(-c2ccc(-c3ccc(C4(C(=O)O)CC4)cc3)cc2)c1Nc1nccc(-c2ccccc2)n1 [Compound 1-115, 1-{4′-[3-Methyl-4-(4-phenyl-pyrimidin-2-ylamino)-isoxazol-5-yl]-biphenyl-4-yl}-cyclopropanecarboxylic acid]
22 | < 300 | Cc1noc(-c2ccc(-c3ccc(C4(C(=O)O)CC4)cc3)cc2)c1Nc1cc(-c2ccccc2)ccn1 [Compound 1-116, 1-{4′-[3-Methyl-4-(4-phenyl-pyridin-2-ylamino)-isoxazol-5-yl]-biphenyl-4-yl}-cyclopropanecarboxylic acid]
23 | < 300 | Cc1noc(-c2ccc(-c3ccc(C4(C(=O)O)CC4)cc3)cc2)c1Nc1cccc(-c2ccccc2CN(C)C)c1 [Compound 1-117, 1-{4′-[4-(2′-Dimethylaminomethyl-biphenyl-3-ylamino)-3-methyl-isoxazol-5-yl]-biphenyl-4-yl}-cyclopropanecarboxylic acid]
24 | < 300 | Cc1noc(-c2ccc(-c3ccc(C4(C(=O)O)CC4)cc3)cc2)c1Nc1cncc(-c2cccc(C(F)(F)F)c2)c1 [Compound 1-118, 1-(4′-{3-Methyl-4-[5-(3-trifluoromethyl-phenyl)-pyridin-3-ylamino]-isoxazol-5-yl}-biphenyl-4-yl)-cyclopropanecarboxylic acid]
25 | < 300 | Cc1noc(-c2ccc(-c3ccc(C4(C(=O)O)CC4)cc3)cc2)c1Nc1cncc(-c2ccc(C(F)(F)F)cc2)c1 [Compound 1-119, 1-(4′-{3-Methyl-4-[5-(4-trifluoromethyl-phenyl)-pyridin-3-ylamino]-isoxazol-5-yl}-biphenyl-4-yl)-cyclopropanecarboxylic acid]
26 | 1000 to 50000 | Cc1noc(-c2ccc(-c3ccc(C4(C(=O)O)CC4)cc3)cc2)c1N(c1cccc(Cc2ccccc2)n1)c1cccc(Cc2ccccc2)n1 [Compound 1-120, 1-(4′-{4-[Bis-(6-benzyl-pyridin-2-yl)-amino]-3-methyl-isoxazol-5-yl}-biphenyl-4-yl)-cyclopropanecarboxylic acid]
27 | > 50000 | Cc1noc(-c2ccc(-c3ccc(C4(C(=O)O)CC4)cc3)cc2)c1NC(=O)c1cccc(-c2ccccc2CN(C)C)c1 [Compound 1-121, 1-(4′-{4-[(2′-Dimethylaminomethyl-biphenyl-3-carbonyl)-amino]-3-methyl-isoxazol-5-yl}-biphenyl-4-yl)-cyclopropanecarboxylic acid]
28 | < 300 | Cc1noc(-c2ccc(-c3ccc(C4(C(=O)O)CCC4)cc3)cc2)c1Nc1cccc(-c2ccccc2)n1 [Compound 1-122, 1-{4′-[3-Methyl-4-(6-phenyl-pyridin-2-ylamino)-isoxazol-5-yl]-biphenyl-4-yl}-cyclobutanecarboxylic acid]
29 | < 300 | Cc1noc(-c2ccc(-c3ccc(C4(C(=O)O)CC4)cc3)cc2)c1Nc1cccc(-n2cccn2)n1 [Compound 1-123, 1-{4′-[3-Methyl-4-(6-pyrazol-1-yl-pyridin-2-ylamino)-isoxazol-5-yl]-biphenyl-4-yl}-cyclopropanecarboxylic acid]
30 | < 300 | Cc1noc(-c2ccc(-c3ccc(C4(C(=O)O)CC4)cc3)cc2)c1Nc1cccc(N2CCOCC2)n1 [Compound 1-124, 1-{4′-[3-Methyl-4-(6-morpholin-4-yl-pyridin-2-ylamino)-isoxazol-5-yl]-biphenyl-4-yl}-cyclopropanecarboxylic acid]
